Several values for one entry are separate records, joined by “and”; a condition that tells them apart may be missing. Identical values can stand only once. Entries after “also recorded” stand apart in the source; their conditions may differ.
Key:
6 Hz seizures = settings: dose-dependent manner; cited from earlier work
MES seizures = settings: in vivo; cited from earlier work
[1] = tested on: 6 Hz (44 mA) psychomotor seizures; test: 6 Hz psychomotor seizure test, 44 mA (alone, combination with LEV, isobolographic study); type: in vivo, mice; settings: for ED50: at TPE, read-out: ED50 (95% CI) 44 mA
Protocol: Test compounds were administered using an optimal fluid volume to body fluid ratio. Test compounds were administered to mice in a volume of 0.01 mL/g of body weight (White H. S., et al., General Principles: Experimental selection, quantification, and evaluation of antiepileptic drugs, in Antiepileptic Drugs, Fourth Edition, […], and B. S. Meldrum, Editors. 1995, Raven Press, Ltd.: New York, pp. 99-110). For subcutaneous (s.c.) administration, the test compounds were administered into a loose fold of skin along the back of the animal except compound 6-b, which was administered orally (p.o). […] The animals were maintained on an adequate diet (Prolab RMH 3000) and allowed free access to food and water, except during the short time they were removed from their cage for testing. Animals newly received in the laboratory were allowed sufficient time to correct for possible food and water restriction incurred during transit before being employed in testing. All mice were housed in plastic cages in specially constructed rooms with controlled humidity, exchange of air and controlled lighting (12 hours on-12 hours off). The animals were housed, fed, and handled in a manner consistent with the recommendations in the National Council Publication, “Guide for the Care and Use of Laboratory Animals”. In the determination of an ED50 or TD50 for each test compound, the first dose administered is usually the same dose as that used in a successful TPE determination. […] Third and fourth doses were selected to produce an evenly spaced dose response line. […] The 6 Hz seizure test is used as a model of pharmacoresistant limbic seizures. […] Focal seizures were induced in mice via corneal stimulation (6 Hz, 0.2 msec rectangular pulse, 3 sec duration; Barton et al. 2001). Mice were tested at either 32 mA or 44 mA. […] The seizures that arise from corneal stimulation in this assay are characterized by a minimal clonic phase followed by stereotyped automatistic behaviors including stun, forelimb clonus, twitching of the vibrissae, and Straub-tail. Animals not displaying these behaviors were considered protected. […] In addition to recording the efficacy and toxicity data for these compounds alone or in combination, both plasma and brain samples were collected from each of the groups for pharmacokinetic/pharmacokinetic analysis. No pharmacokinetic interaction was observed based on compound levels in the plasma and brain samples (data not shown). Isobolographic studies were conducted for the combined administration of Co. […] Studies were conducted according to previously described methods (Madsen et al. 2011). Initial ED50 values were determined for both Co. […] Co. […] Doses used were proportional to calculated ED50 values. […] Experimental treatment doses (see Table 4) were based on theoretical values and adjusted according to observed effects. Experimentally determined ED50 (+SEM) values for each fixed dose-ratio combination were compared to the theoretical values (t-test) for statistical purposes. […] Subsequently, the experimental combined doses were determined for the same paradigms in the 6 Hz seizure test (Table 4 below).

corneal kindled seizures = test: Mouse corneal kindling model; type: in vivo, mice; settings: Racine score 0-5
Protocol: After the mice reached a stable kindled state, the test compound or vehicle was administered and, at the previously determined TPE, each animal was given the electrical stimulus indicated above. […] One dose of LEV and two doses of Co.

[2] = tested on: 6 Hz (32 mA) psychomotor seizures; test: 6 Hz psychomotor seizure test, 32 mA (incl. TPE determination); type: in vivo, mice; settings: for ED50: Mus musculus, sc, read-out: ED50 (95% CI) 32 mA; for ED50 / ED50 (95% CI) 32 mA: at TPE; for ED50 (95% CI) 32 mA: s.c.; for # protected/# tested: 0.5 h
Protocol: Test compounds were administered using an optimal fluid volume to body fluid ratio. Test compounds were administered to mice in a volume of 0.01 mL/g of body weight (White H. S., et al., General Principles: Experimental selection, quantification, and evaluation of antiepileptic drugs, in Antiepileptic Drugs, Fourth Edition, […], and B. S. Meldrum, Editors. 1995, Raven Press, Ltd.: New York, pp. 99-110). For subcutaneous (s.c.) administration, the test compounds were administered into a loose fold of skin along the back of the animal except compound 6-b, which was administered orally (p.o). […] The animals were maintained on an adequate diet (Prolab RMH 3000) and allowed free access to food and water, except during the short time they were removed from their cage for testing. Animals newly received in the laboratory were allowed sufficient time to correct for possible food and water restriction incurred during transit before being employed in testing. All mice were housed in plastic cages in specially constructed rooms with controlled humidity, exchange of air and controlled lighting (12 hours on-12 hours off). The animals were housed, fed, and handled in a manner consistent with the recommendations in the National Council Publication, “Guide for the Care and Use of Laboratory Animals”. In the determination of an ED50 or TD50 for each test compound, the first dose administered is usually the same dose as that used in a successful TPE determination. […] Third and fourth doses were selected to produce an evenly spaced dose response line. […] TPE was determined using the 6 Hz (32 mA) assay. […] The 6 Hz seizure test is used as a model of pharmacoresistant limbic seizures. […] Focal seizures were induced in mice via corneal stimulation (6 Hz, 0.2 msec rectangular pulse, 3 sec duration; Barton et al. 2001). Mice were tested at either 32 mA or 44 mA. […] The seizures that arise from corneal stimulation in this assay are characterized by a minimal clonic phase followed by stereotyped automatistic behaviors including stun, forelimb clonus, twitching of the vibrissae, and Straub-tail. Animals not displaying these behaviors were considered protected.

[3] = Plasma and brain levels (pK/pD analysis); type: in vivo, mice; settings: for concentration at 0.25 h: mouse, subcutaneous
Protocol: In various tests, animals were sacrificed following testing, and trunk blood and/or brain tissue (whole brains) was collected for quantification of drug levels. Immediately after testing, animals were decapitated and trunk blood was collected into a BD Vacutainer® tube containing K2EDTA and chilled on ice until centrifugation. Following centrifugation (13000-18000 rpm, 5-7 min), the plasma was removed and transferred to a labeled microcentrifuge tube and stored at −80° C. For brain tissue collection, brains were removed immediately following decapitation and flash frozen. The frozen sample was placed in a labeled centrifuge tube and stored at −80° C.
In addition to recording the efficacy and toxicity data for these compounds alone or in combination, both plasma and brain samples were collected from each of the groups for pharmacokinetic/pharmacokinetic analysis.

paroxysmal dystonia = settings: dt^sz mutant hamster; cited from earlier work
human mGlu2 receptor = target: T1, human mGlu2 receptor (Homo sapiens, UniProt Q14416); test: [35S]GTPγS binding assay, mGluR2 PAM; type: biochemical; settings: maximal % effect relative to control glutamate response; EC20 glutamate; read-out: GTPγS-hmGluR2 PAM Emax
T1 construct: expressed in transfected cells; host or cells: CHO cells
T1 sequence (Q14416 19-872): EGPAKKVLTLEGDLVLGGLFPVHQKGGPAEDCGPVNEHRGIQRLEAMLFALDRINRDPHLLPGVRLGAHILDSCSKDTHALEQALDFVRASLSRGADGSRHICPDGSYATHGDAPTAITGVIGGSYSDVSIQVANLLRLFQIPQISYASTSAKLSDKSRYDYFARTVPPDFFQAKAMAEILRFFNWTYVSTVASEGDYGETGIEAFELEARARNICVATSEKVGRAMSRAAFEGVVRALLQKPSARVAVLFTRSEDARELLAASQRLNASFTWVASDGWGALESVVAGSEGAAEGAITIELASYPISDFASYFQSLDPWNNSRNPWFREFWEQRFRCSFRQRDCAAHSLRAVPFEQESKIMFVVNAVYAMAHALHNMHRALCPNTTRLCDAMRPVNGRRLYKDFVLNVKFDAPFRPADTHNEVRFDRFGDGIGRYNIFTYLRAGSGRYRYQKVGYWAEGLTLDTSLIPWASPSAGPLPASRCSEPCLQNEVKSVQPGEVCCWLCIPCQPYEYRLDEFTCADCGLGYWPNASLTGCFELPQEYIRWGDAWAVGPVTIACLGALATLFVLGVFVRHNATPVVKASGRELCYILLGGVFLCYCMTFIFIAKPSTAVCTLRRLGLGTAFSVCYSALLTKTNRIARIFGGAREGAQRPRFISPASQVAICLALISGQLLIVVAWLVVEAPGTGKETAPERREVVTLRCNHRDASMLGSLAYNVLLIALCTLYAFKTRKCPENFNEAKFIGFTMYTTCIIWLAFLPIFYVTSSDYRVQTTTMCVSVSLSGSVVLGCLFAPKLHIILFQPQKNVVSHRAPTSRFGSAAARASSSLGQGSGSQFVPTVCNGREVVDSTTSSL

[4] = Minimal motor impairment (rotarod); type: in vivo, mice; settings: for # rotarod motor impairment/# tested: 0.5 h
Protocol: Acute MMI was assessed by a combination of direct observations of the animal for overt symptoms of the animal's neurological or muscular function. In mice, the rotarod procedure was used to disclose minimal muscular or neurological impairment. When a mouse is placed on a rod that rotates at a speed of 6 rpm, the animal can maintain its equilibrium for long periods of time. The animal was considered toxic if it fell off this rotating rod three times during a 1 min period.
In the determination of an ED50 or TD50 for each test compound, the first dose administered is usually the same dose as that used in a successful TPE determination.
If the initial dose employed was effective or toxic in more than 50% of animals, the next dose would be one-half that of the initial dose; if the initial dose was effective or toxic in less than 50% of animals, the following dose would be twice that of the initial dose. Third and fourth doses were selected to produce an evenly spaced dose response line. There should be a minimum of 4 points either including or lying between 0 and 100%.

[5] = Mus musculus, sc, compound alone
[6] = Co. No. 2 3 mg/kg combined with LEV 10 mg/kg, 6 Hz 44 mA

N[C@@]1(C(=O)O)CO[C@H]2[C@H](C(=O)O)[C@H]21 [LY379268]
activity in the 6 Hz model (6 Hz seizures): effective
activity in maximal electroshock (MES) seizure test (MES seizures): ineffective

N[C@@]1(C(=O)O)CS[C@H]2[C@H](C(=O)O)[C@H]21 [LY389795]
activity in the 6 Hz model (6 Hz seizures): effective
activity in maximal electroshock (MES) seizure test (MES seizures): ineffective

FC(F)(F)c1c(N2CCC(c3ccccc3)CC2)ccn2c(CC3CC3)nnc12 [Co. No. 2]
responders at 3 mg/kg ([1]; Mus musculus, sc, 0.25 h, 3 mg/kg s.c., 0.25 h, read-out: # protected/# tested (converted)): 16.7%
ED50 [1, 5]: 5.89 mg/kg
Maximum Effect (% Protection) ([1]; compound alone): 100%
Seizure score (dose) Corneal kindling (corneal kindled seizures; 40 mg/kg s.c.): 3.4
ED50 [2]: 3.83 mg/kg
Brain (ng/ml) Co. No. 2, individual mice [3, 6]: 1120 ng/mL and 1140 ng/mL and 1540 ng/mL and 1020 ng/mL
Plasma (ng/ml) Co. No. 2, individual mice [3, 6]: 4700 ng/ml and 467 ng/ml and AQL and (>500) ng/ml and 2080 ng/ml and 1830 ng/ml and 386 ng/ml
concentration at 0.25 h ([3]; brain, 3 mg/kg, Mean Brain Level (non-combination) Co. No. 2, Co. No. 2 3 mg/kg alone): 1110 ng/mL
concentration at 0.25 h ([3]; brain, Brain (ng/ml) Co. No. 2, individual mice, Co. No. 2 3 mg/kg combined with LEV 10 mg/kg, 6 Hz 44 mA): 1310 ng/mL
concentration at 0.25 h ([3]; brain, Mean Brain Level Co. No. 2, Co. No. 2 3 mg/kg combined with LEV 10 mg/kg): 1230 ng/mL
concentration at 0.25 h ([3]; plasma, 3 mg/kg, Mean Plasma Level (non-combination) Co. No. 2, Co. No. 2 3 mg/kg alone): 1300 ng/mL
concentration at 0.25 h ([3]; plasma, Mean Plasma Level Co. No. 2, Co. No. 2 3 mg/kg combined with LEV 10 mg/kg): 1890 ng/mL

CCC[C@@H]1CC(=O)N([C@@H](CC)C(N)=O)C1 [Brivaracetam, (2S)-2-[(4R)-oxo-4-propyl-pyrrolidin-1-yl]butanamide]
effect on severity of dystonia (paroxysmal dystonia): reduce the severity of dystonia

CC[C@@H](C(N)=O)N1C[C@H](C=C(F)F)CC1=O [Seletracetam, (2S)-2-[(4S)-4-(2,2,-difluorovinyl)-2-oxo-pyrrolidin-1-yl]butanamide]
effect on severity of dystonia (paroxysmal dystonia): reduce the severity of dystonia

FC(F)(F)Cc1nnc2c(Cl)c(N3CCC(F)(c4ccccc4)CC3)ccn12 [Co. No. 11]
ED50 [1, 5]: 31.5 mg/kg
Seizure score (dose) Corneal kindling (corneal kindled seizures; 100 mg/kg s.c.): 2.8
ED50 [2]: 4.77 mg/kg
ED50 (95% CI) 32 mA [2]: 9.41 (1.53-15.1) mg/kg
Emax (human mGlu2 receptor): 310%

CCCCn1ccc(N2CCC(c3ccccc3)CC2)c(Cl)c1=O [Co. No. 2-a]
# rotarod motor impairment/# tested ([4]; 2.5 mg/kg s.c., 32 mA group): 1/8
# rotarod motor impairment/# tested ([4]; 5 mg/kg s.c., 32 mA group): 0/8
# rotarod motor impairment/# tested ([4]; 10 mg/kg s.c., 32 mA group): 0/8
# rotarod motor impairment/# tested ([4]; 10 mg/kg s.c., 44 mA group): 1/8 and 0/8
# rotarod motor impairment/# tested ([4]; 15 mg/kg s.c., 44 mA group): 1/8
# rotarod motor impairment/# tested ([4]; 20 mg/kg s.c., 32 mA group): 3/8
# rotarod motor impairment/# tested ([4]; 20 mg/kg s.c., 44 mA group): 0/8
# rotarod motor impairment/# tested ([4]; 40 mg/kg s.c., 32 mA group): 2/8
# rotarod motor impairment/# tested ([4]; 40 mg/kg s.c., 44 mA group): 4/8
TD50 at 0.5 h ([4]; mouse, in vivo, sc, rotarod): > 40 mg/kg
activity when administered alone ([1]; 10 mg/kg s.c.): ^aCo. No. 2-a (s.c.) 10 mg/kg tested in combination with LEV (i.p.); Co. No. 2-a 10 mg/kg, not active when administered alone; also recorded: ^bCo. No. 2-a (s.c.) 10 mg/kg tested in combination with LEV (i.p.); Co. No. 2-a 10 mg/kg, not active when administered alone
% protection 44 mA ([1]; 100 mg/kg s.c.): 50% protection at
responders at 10 mg/kg ([1]; Mus musculus, sc, 0.5 h, 10 mg/kg s.c., 0.5 h, read-out: # protected/# tested (converted)): 0%
responders at 15 mg/kg ([1]; Mus musculus, sc, 0.5 h, 15 mg/kg s.c., 0.5 h, read-out: # protected/# tested (converted)): 25%
responders at 20 mg/kg ([1]; Mus musculus, sc, 0.5 h, 20 mg/kg s.c., 0.5 h, read-out: # protected/# tested (converted)): 37.5%
responders at 40 mg/kg ([1]; Mus musculus, sc, 0.5 h, 40 mg/kg s.c., 0.5 h, read-out: # protected/# tested (converted)): 100%
ED50 [1, 5]: 21 mg/kg
Seizure score (dose) Corneal kindling (corneal kindled seizures; 100 mg/kg s.c.): 4.4
# protected/# tested ([2]; 2.5 mg/kg s.c.): 0/8
# protected/# tested ([2]; 5 mg/kg s.c.): 0/8
# protected/# tested ([2]; 10 mg/kg s.c.): 4/8
# protected/# tested ([2]; 20 mg/kg s.c.): 6/8
# protected/# tested ([2]; 40 mg/kg s.c.): 8/8
ED50 (95% CI) 32 mA [2]: ED50 (95% CI): 12.2 mg/kg (8.4 to 17.4)
